Test results taken from PubChem BioAssay (NCI).
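48-hour exposure; five concentrations; linearly interpolated endpoints. At the TGI there is no net growth.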

How the values were obtained:
Assay in all cases: growth of human tumour cells (NCI), 48 h
K-562 leukemia = tested on: K-562 leukemia
KM12 colon = tested on: KM12 colon
SK-MEL-2 melanoma = tested on: SK-MEL-2 melanoma
HCT-116 colon = tested on: HCT-116 colon
HS 578T breast = tested on: HS 578T breast
U251 CNS = tested on: U251 CNS
MDA-MB-231 breast = tested on: MDA-MB-231 breast
NCI-H460 lung = tested on: NCI-H460 lung
A498 renal = tested on: A498 renal
ACHN renal = tested on: ACHN renal
UO-31 renal = tested on: UO-31 renal
NCI-H226 lung = tested on: NCI-H226 lung
HT29 colon = tested on: HT29 colon
NCI-H522 lung = tested on: NCI-H522 lung
A549 NSCLC = tested on: A549 NSCLC
SN12C renal = tested on: SN12C renal
DU-145 prostate = tested on: DU-145 prostate
PC-3 prostate = tested on: PC-3 prostate
COLO 205 colon = tested on: COLO 205 colon
T-47D breast = tested on: T-47D breast
M14 melanoma = tested on: M14 melanoma
HCC-2998 colon = tested on: HCC-2998 colon
HCT-15 colon = tested on: HCT-15 colon
OVCAR-8 ovarian = tested on: OVCAR-8 ovarian
MDA-MB-435 = tested on: MDA-MB-435
EKVX NSCLC = tested on: EKVX NSCLC
SK-MEL-5 melanoma = tested on: SK-MEL-5 melanoma
MCF7 breast = tested on: MCF7 breast
OVCAR-4 ovarian = tested on: OVCAR-4 ovarian
UACC-62 melanoma = tested on: UACC-62 melanoma
TK-10 renal = tested on: TK-10 renal
LOX IMVI melanoma = tested on: LOX IMVI melanoma
MDA-N = tested on: MDA-N
RPMI-8226 leukemia = tested on: RPMI-8226 leukemia
SNB-75 CNS = tested on: SNB-75 CNS
SF-295 CNS = tested on: SF-295 CNS
OVCAR-5 ovarian = tested on: OVCAR-5 ovarian
RXF 393 renal = tested on: RXF 393 renal
IGROV1 ovarian = tested on: IGROV1 ovarian
786-0 renal = tested on: 786-0 renal
HL-60(TB) leukemia = tested on: HL-60(TB) leukemia
HOP-62 NSCLC = tested on: HOP-62 NSCLC
MOLT-4 leukemia = tested on: MOLT-4 leukemia
CCRF-CEM leukemia = tested on: CCRF-CEM leukemia
UACC-257 melanoma = tested on: UACC-257 melanoma
NCI-H23 lung = tested on: NCI-H23 lung
SW-620 colon = tested on: SW-620 colon
SK-OV-3 ovarian = tested on: SK-OV-3 ovarian
SK-MEL-28 melanoma = tested on: SK-MEL-28 melanoma
OVCAR-3 ovarian = tested on: OVCAR-3 ovarian
SNB-19 CNS = tested on: SNB-19 CNS
SF-539 CNS = tested on: SF-539 CNS
SF-268 CNS = tested on: SF-268 CNS
NCI/ADR-RES ovarian = tested on: NCI/ADR-RES ovarian
HOP-92 NSCLC = tested on: HOP-92 NSCLC
MALME-3M melanoma = tested on: MALME-3M melanoma
CAKI-1 renal = tested on: CAKI-1 renal
SR leukemia = tested on: SR leukemia

CN1N=C(c2ccncc2)OC1c1ccc(Cl)cc1Cl (stereo not drawn)
TGI (K-562 leukemia): > 100 µM
TGI (KM12 colon): > 100 µM
TGI (SK-MEL-2 melanoma): > 100 µM
TGI (HCT-116 colon): > 100 µM
TGI (HS 578T breast): > 100 µM
TGI (U251 CNS): > 100 µM
TGI (MDA-MB-231 breast): > 100 µM
TGI (NCI-H460 lung): > 100 µM
TGI (A498 renal): > 100 µM
TGI (ACHN renal): > 100 µM
TGI (UO-31 renal): > 100 µM
TGI (NCI-H226 lung): 84.2 µM
TGI (HT29 colon): > 100 µM
TGI (NCI-H522 lung): > 100 µM
TGI (A549 NSCLC): > 100 µM
TGI (SN12C renal): > 100 µM
TGI (DU-145 prostate): > 100 µM
TGI (PC-3 prostate): > 100 µM
TGI (COLO 205 colon): > 100 µM
TGI (T-47D breast): > 100 µM
TGI (M14 melanoma): > 100 µM
TGI (HCC-2998 colon): > 100 µM
TGI (HCT-15 colon): > 100 µM
TGI (OVCAR-8 ovarian): > 100 µM
TGI (MDA-MB-435): > 100 µM
TGI (EKVX NSCLC): > 100 µM
TGI (SK-MEL-5 melanoma): > 100 µM
TGI (MCF7 breast): > 100 µM
TGI (OVCAR-4 ovarian): > 100 µM
TGI (UACC-62 melanoma): 76.5 µM
TGI (TK-10 renal): > 100 µM
TGI (LOX IMVI melanoma): > 100 µM
TGI (MDA-N): > 100 µM
TGI (RPMI-8226 leukemia): > 100 µM
TGI (SNB-75 CNS): 55.6 µM
TGI (SF-295 CNS): > 100 µM
TGI (OVCAR-5 ovarian): > 100 µM
TGI (RXF 393 renal): > 100 µM
TGI (IGROV1 ovarian): > 100 µM
TGI (786-0 renal): > 100 µM
TGI (HL-60(TB) leukemia): > 100 µM
TGI (HOP-62 NSCLC): > 100 µM
TGI (MOLT-4 leukemia): > 100 µM
TGI (CCRF-CEM leukemia): > 100 µM
TGI (UACC-257 melanoma): > 100 µM
TGI (NCI-H23 lung): > 100 µM
TGI (SW-620 colon): > 100 µM
TGI (SK-OV-3 ovarian): > 100 µM
TGI (SK-MEL-28 melanoma): > 100 µM
TGI (OVCAR-3 ovarian): > 100 µM
TGI (SNB-19 CNS): > 100 µM
TGI (SF-539 CNS): > 100 µM
TGI (SF-268 CNS): > 100 µM
TGI (NCI/ADR-RES ovarian): > 100 µM

COC(=O)CCCc1ccc2c(c1)CC1(Cc3ccccc3C1)C2
TGI (KM12 colon): > 100 µM
TGI (SK-MEL-2 melanoma): 56.1 µM
TGI (HCT-116 colon): 78.6 µM
TGI (HS 578T breast): > 100 µM
TGI (U251 CNS): > 100 µM
TGI (MDA-MB-231 breast): > 100 µM
TGI (A498 renal): > 100 µM
TGI (ACHN renal): > 100 µM
TGI (UO-31 renal): > 100 µM
TGI (NCI-H226 lung): > 100 µM
TGI (HT29 colon): > 100 µM
TGI (NCI-H522 lung): > 100 µM
TGI (A549 NSCLC): > 100 µM
TGI (SN12C renal): > 100 µM
TGI (PC-3 prostate): > 100 µM
TGI (COLO 205 colon): 62.5 µM
TGI (T-47D breast): > 100 µM
TGI (M14 melanoma): > 100 µM
TGI (HCC-2998 colon): > 100 µM
TGI (HCT-15 colon): 97.3 µM
TGI (OVCAR-8 ovarian): > 100 µM
TGI (MDA-MB-435): 61.1 µM
TGI (EKVX NSCLC): > 100 µM
TGI (SK-MEL-5 melanoma): 59.7 µM
TGI (MCF7 breast): > 100 µM
TGI (OVCAR-4 ovarian): > 100 µM
TGI (UACC-62 melanoma): > 100 µM
TGI (TK-10 renal): > 100 µM
TGI (LOX IMVI melanoma): > 100 µM
TGI (MDA-N): 53.6 µM
TGI (RPMI-8226 leukemia): 85.5 µM
TGI (SF-295 CNS): > 100 µM
TGI (OVCAR-5 ovarian): > 100 µM
TGI (RXF 393 renal): > 100 µM
TGI (IGROV1 ovarian): > 100 µM
TGI (786-0 renal): > 100 µM
TGI (HOP-92 NSCLC): > 100 µM
TGI (HOP-62 NSCLC): > 100 µM
TGI (MOLT-4 leukemia): 15.5 µM
TGI (CCRF-CEM leukemia): 71.6 µM
TGI (UACC-257 melanoma): > 100 µM
TGI (NCI-H23 lung): > 100 µM
TGI (SK-OV-3 ovarian): > 100 µM
TGI (OVCAR-3 ovarian): > 100 µM
TGI (SF-539 CNS): > 100 µM
TGI (MALME-3M melanoma): > 100 µM
TGI (NCI/ADR-RES ovarian): > 100 µM

CN1CCN(Cn2nc(COc3ccc(Cl)cc3)n(/N=C/c3ccc(-c4ccc(Cl)cc4Cl)o3)c2=S)CC1
TGI (K-562 leukemia): > 100 µM
TGI (KM12 colon): 11 µM
TGI (SK-MEL-2 melanoma): 41 µM
TGI (HCT-116 colon): 26.2 µM
TGI (HS 578T breast): 23.8 µM
TGI (U251 CNS): 23.1 µM
TGI (MDA-MB-231 breast): 22 µM
TGI (NCI-H460 lung): 34.3 µM
TGI (A498 renal): 32.6 µM
TGI (ACHN renal): 33.9 µM
TGI (UO-31 renal): 32.6 µM
TGI (NCI-H226 lung): 49.2 µM
TGI (HT29 colon): 15.4 µM
TGI (NCI-H522 lung): 10.2 µM
TGI (DU-145 prostate): 25 µM
TGI (PC-3 prostate): 23.5 µM
TGI (T-47D breast): 46.3 µM
TGI (HCC-2998 colon): 7.72 µM
TGI (HCT-15 colon): 36.9 µM
TGI (OVCAR-8 ovarian): 18.7 µM
TGI (MDA-MB-435): 8.02 µM
TGI (EKVX NSCLC): 37.7 µM
TGI (SK-MEL-5 melanoma): 35.5 µM
TGI (MCF7 breast): 36.7 µM
TGI (OVCAR-4 ovarian): 10.5 µM
TGI (TK-10 renal): 30.6 µM
TGI (LOX IMVI melanoma): 24.1 µM
TGI (MDA-N): 14.1 µM
TGI (SF-295 CNS): 27.8 µM
TGI (OVCAR-5 ovarian): 33.2 µM
TGI (RXF 393 renal): 7.13 µM
TGI (CAKI-1 renal): 28.3 µM
TGI (IGROV1 ovarian): 24 µM
TGI (786-0 renal): 17 µM
TGI (SR leukemia): 14.8 µM
TGI (HOP-92 NSCLC): 22.7 µM
TGI (HOP-62 NSCLC): 16.8 µM
TGI (MOLT-4 leukemia): 41.1 µM
TGI (CCRF-CEM leukemia): 17.3 µM
TGI (UACC-257 melanoma): 36.7 µM
TGI (SW-620 colon): 19 µM
TGI (SK-OV-3 ovarian): 30.2 µM
TGI (SK-MEL-28 melanoma): 28.2 µM
TGI (OVCAR-3 ovarian): 30.6 µM
TGI (SF-539 CNS): 72.3 µM
TGI (SF-268 CNS): 21.3 µM
TGI (NCI/ADR-RES ovarian): 38.9 µM
